# Activity calls are given as the source filed them. The calls are words filed in the database; no cut-off is given here.
# Tests used:
# Homo sapiens [1] = species: Homo sapiens; assay: Ratio of embelin IC50 to compound IC50 for hexa-His-tagged PAI-1 N152H/K156T/Q321L/M356I mutant (unknown origin) expressed in Escherichia coli BL21(DE3)
# [2] = Inhibition of hexa-His-tagged PAI-1 N152H/K156T/Q321L/M356I mutant (unknown origin) expressed in Escherichia coli BL21(DE3) after 10 mins by uPA-based assay; design: species or system Homo sapiens
# Homo sapiens [3] = species: Homo sapiens; assay: Inhibition of hexa-His-tagged PAI-1 N152H/K156T/Q321L/M356I mutant (unknown origin) expressed in Escherichia coli BL21(DE3) at 100 uM after 10 mins by uPA-based assay
compound,measurement,setting,value
CCCCCCCCCC1=C(O)C(=O)C(Cc2ccccc2)=C(O)C1=O,Ratio IC50,Homo sapiens [1],6.5
same,IC50,[2],770 nM
CCCCC1=C(O)C(=O)C(CCCC)=C(O)C1=O,IC50,[2],7110 nM
CCCCCCCCCC1=C(O)C(=O)C(CCCCCCC)=C(O)C1=O,Ratio IC50,Homo sapiens [1],5
same,IC50,[2],950 nM
CCCCCCCCC1=C(O)C(=O)C(CCCCCCCC)=C(O)C1=O,Ratio IC50,Homo sapiens [1],5
same,IC50,[2],890 nM
CCCCCCCCCCCC1=C(O)C(=O)C=C(OC)C1=O [5-O-METHYLEMBELIN],IC50,[2],90200 nM
CCCCCCCC1=C(O)C(=O)C(CCCCCCC)=C(O)C1=O,Ratio IC50,Homo sapiens [1],10
same,IC50,[2],510 nM
CCCCCCCCCC1=C(O)C(=O)C(CCC)=C(O)C1=O,Ratio IC50,Homo sapiens [1],13
same,IC50,[2],380 nM
CCCCCCCCCC1=C(O)C(=O)C=C(O)C1=O,IC50,[2],1780 nM
CCCCCCCCCC1=C(O)C(=O)C(CCCCC)=C(O)C1=O,Ratio IC50,Homo sapiens [1],8
same,IC50,[2],630 nM
CCCCCCC1=C(O)C(=O)C(CCCCCC)=C(O)C1=O,Ratio IC50,Homo sapiens [1],9
same,IC50,[2],580 nM
CCCCCCCCCCCC1=C(O)C(=O)C=C(O)C1=O [EMBELIN],IC50,[2],4940 nM
CCCCCCCCCCCC1=C(OC)C(=O)C=C(OC)C1=O,inhibition,Homo sapiens [3],inactive
CCCCCC1=C(O)C(=O)C(CCCCC)=C(O)C1=O,Ratio IC50,Homo sapiens [1],5
same,IC50,[2],920 nM
CCCC1=C(O)C(=O)C(CCC)=C(O)C1=O,IC50,[2],5680 nM
CCCCCCCCC1=C(O)C(=O)C=C(O)C1=O,IC50,[2],1870 nM
C=CCC1=C(O)C(=O)C(CCCCCCCCC)=C(O)C1=O,Ratio IC50,Homo sapiens [1],6.5
same,IC50,[2],750 nM
CCCCCCCC1=C(O)C(=O)C=C(O)C1=O,IC50,[2],3870 nM
CCCCCCCCCC1=C(O)C(=O)C(CCCC)=C(O)C1=O,Ratio IC50,Homo sapiens [1],27
same,IC50,[2],180 nM
CCCCCCC1=C(O)C(=O)C=C(O)C1=O,IC50,[2],4180 nM
CCCCCC1=C(O)C(=O)C=C(O)C1=O,IC50,[2],4560 nM
